Assay results taken from patent US11376324B2, “Sting activating nanovaccine for immunotherapy” (The Board of Regents of the University of Texas System, priority 2016, dated 2022).

Columns and labels:
[1] = Histology of major organs (H&E); format: in vivo, C57BL/6 mice; details: repeated injections, 10 μg OVA plus 150 μg
Method: FIG. 14. Histology analyses of major organs for safety assessment of PC7A nanovaccine. Representative H&E sections of the main organs from C57BL/6 mice after repeated injections of 10 μg OVA plus 150 μg PC7A NP or the same dose of Poly(I:C). Mice were sacrificed 24 h after the second injection (n=5 for each group).

IRF7 and CXCL10 = experiment: q-RT-PCR of interferon-stimulated genes at injection site; format: in vivo, mice; details: local tissue after s.c. injection
Source text: Samples were run in triplicate.

B16-OVA tumor = experiment: B16-OVA melanoma tumor therapy; format: in vivo, C57BL/6 mice; details: peptide 0.5 μg, s.c. day 5 and booster 5 days later
Method: Six to eight week old mice (n=10 for each group) were injected subcutaneously with B16-OVA or B16F10 melanoma cells (1.5×10^5), or TC-1 cells (1.5×10^5), MC38 cells (5×10^5) into the right flank of mice. […] Or at day 3, 6, 9 and 12, some groups were i.p. injected with 200 μg checkpoint inhibitors (anti-mPD-1, BioXcell, BE0146) for comparison or synergy evaluation. The tumor growth was subsequently measured twice a week using a digital caliper and calculated as 0.5×length×width^2 by blinded investigators. Mice were killed when tumor […] reached 1500 mm^3, the end point of tumor detection is 2-fold of the longest survival time (LST) of control group, so around 40 days for melanoma tumor model, and around 60 days for TC-1 and MC38 tumor models.

| Substance | histology of major organs (liver, spleen, kidney, heart) [1] | IRF7 and CXCL10 expression, 2 to 8 h (IRF7 and CXCL10) | tumor growth inhibition / survival benefit (in words) (B16-OVA tumor) |
| --- | --- | --- | --- |
| Poly(I:C) | ballooned hepatocytes indicative of steatohepatitis | higher response in IRF7 and CXCL10 expressions in the early time points from 2 to 8 h than PC7A NP | – |
| SIINFEKLTEWTSSNVMEERKIKV [OVA257-280] | – | – | did not offer any significant tumor growth inhibition or survival benefit over the PBS control |
